Measured values: patent US11707440B2 (priority 2017, dated 2023)
Where two headings read alike, the source gives them in different places.

How the values were obtained:
[1] = system: subjects with MDD at imminent risk for suicide; experiment: Sustained response, response and remission based on MADRS, […]2001; format: in vivo, human; conditions: at least 50 percent reduction from baseline with onset on Day 1 maintained through Day 25; ITT analysis set
Excerpt: • a. Changes from baseline to Day 2 and Day 25 for the MADRS total score • b. Changes from baseline to Day 1 4-hours postdose, Day 2 and Day 25 for the MADRS Suicide Item • c. Changes from baseline to Day 1 4-hours postdose, Day 2, and Day 25 for the clinical global judgment of suicide risk from the Suicide Ideation and Behavior Assessment Tool (SIBAT) • d. Sustained response (Onset of Clinical Response) defined as at least 50% reduction from baseline in MADRS total score with onset on Day 1 that is maintained through the end of the double-blind phase (Day 25) • e. Changes from baseline to Day 1 4-hours postdose, Day 2, and Day 25 for the Beck Scale for Suicidal Ideation (BSS) • f. Changes from baseline to Day 1 4-hours postdose and Day 25 for the Beck Hopelessness Scale
Sustained response is defined as at least 50% reduction from baseline in MADRS total score with onset on Day 1: 4 hours postdose that is maintained through the end of the double-blind phase (Day 25). Four subjects in the esketamine 84 mg group and 2 subjects in the placebo group had sustained response throughout the double-blind phase.

[2] = system: subjects with MDD at imminent risk for suicide; experiment: Beck Scale for Suicidal Ideation (BSS), […]2001; format: in vivo, human; conditions: for BSS total score change, Diff. of LS Means (SE) minus placebo: ANCOVA LOCF
Method: The BSS is a 21-item self-reported instrument to detect and measure the severity of suicidal ideation in adults and adolescents aged 17 years and older. The BSS total score represents the severity of suicide ideation, and it is calculated by summing the ratings of the first 19 items; the total score ranges from 0 to 38, with a higher score representing greater suicide ideation. Increasing scores reflect increases in suicidal risk.

[3] = system: subjects with MDD at imminent risk for suicide
[4] = Baseline(DB), predose Day 1, ITT analysis set
[5] = Day 1(DB): 4H, LOCF, ITT analysis set
[6] = Day 2(DB), LOCF, ITT analysis set
[7] = End Point(DB), LOCF, ITT analysis set
[8] = TEAE in ≥5% of subjects in any treatment group, double-blind phase, safety analysis set
[9] = TEAE leading to study discontinuation, double-blind phase, safety analysis set
[10] = adverse events, follow up phase, safety (FU) analysis set

CN[C@]1(c2ccccc2Cl)CCCCC1=O [Esketamine 84 mg]
Day 25 sustained response based on MADRS total score: No [1]: 30 (88.2%) subjects (%)
Day 25 sustained response based on MADRS total score: Yes [1]: 4 (118%) subjects (%)
BSS total score, Mean (SD) [2, 4]: 24.0 (5.45)
BSS total score, Median (Range) [2, 4]: 25.0 (8; 33)
BSS total score change, Diff. of LS Means (SE) minus placebo ([2]; Day 1(DB): 4H): −2.3 (2.29)
BSS total score change from baseline, Mean (SD) [2, 5]: −10.2 (9.74)
BSS total score change from baseline, Median (Range) [2, 5]: −8.0 (−33; 8)
BSS total score, Median (Range) [2, 5]: 16.5 (0; 31)
BSS total score change, Diff. of LS Means (SE) minus placebo ([2]; Day 2(DB)): −1.9 (2.30)
BSS total score, Mean (SD) [2, 6]: 11.1 (10.12)
BSS total score, Median (Range) [2, 6]: 13.0 (0; 34)
BSS total score change, Diff. of LS Means (SE) minus placebo ([2]; End Point(DB)): −1.7 (2.15)
BSS total score change from baseline, Median (Range) [2, 7]: −21.0 (−33; 8)
BSS total score, Mean (SD) [2, 7]: 4.7 (9.03)
BSS total score, Median (Range) [2, 7]: 0.0 (0; 34)
Abdominal pain [3, 8]: 0 no. subjects (%)
Acne [3, 8]: 2 (5.7%) no. subjects (%)
Agitation [3, 8]: 3 (8.6%) no. subjects (%)
Anxiety [3, 8]: 6 (17.1%) no. subjects (%)
Blepharospasm [3, 8]: 0 no. subjects (%)
Blood pressure increased [3, 8]: 2 (5.7%) no. subjects (%)
Constipation [3, 8]: 0 no. subjects (%)
Diarrhea [3, 8]: 3 (8.6%) no. subjects (%)
Diplopia [3, 8]: 2 (5.7%) no. subjects (%)
Dissociation [3, 8]: 11 (31.4%) no. subjects (%)
Dizziness [3, 8]: 12 (34.3%) no. subjects (%)
Dizziness postural [3, 8]: 2 (5.7%) no. subjects (%)
Dry mouth [3, 8]: 3 (8.6%) no. subjects (%)
Dysgeusia [3, 8]: 11 (31.4%) no. subjects (%)
Ear and labyrinth disorders [3, 8]: 9 (25.7%) no. subjects (%)
Epistaxis [3, 8]: 0 no. subjects (%)
Euphoric mood [3, 8]: 4 (11.4%) no. subjects (%)
Eye disorders [3, 8]: 7 (20.0%) no. subjects (%)
Fatigue [3, 8]: 2 (5.7%) no. subjects (%)
Feeling abnormal [3, 8]: 3 (8.6%) no. subjects (%)
Feeling cold [3, 8]: 2 (5.7%) no. subjects (%)
Flatulence [3, 8]: 1 (2.9%) no. subjects (%)
Gastrointestinal disorders [3, 8]: 19 (54.3%) no. subjects (%)
General disorders and administration site conditions [3, 8]: 10 (28.6%) no. subjects (%)
Headache [3, 8]: 11 (31.4%) no. subjects (%)
Hyperacusis [3, 8]: 2 (5.7%) no. subjects (%)
Hyperhidrosis [3, 8]: 2 (5.7%) no. subjects (%)
Hypoesthesia [3, 8]: 3 (8.6%) no. subjects (%)
Hypoesthesia oral [3, 8]: 2 (5.7%) no. subjects (%)
Infections and infestations [3, 8]: 1 (2.9%) no. subjects (%)
Insomnia [3, 8]: 3 (8.6%) no. subjects (%)
Intranasal paranesthesia [3, 8]: 0 no. subjects (%)
Investigations [3, 8]: 5 (14.3%) no. subjects (%)
Nasal congestion [3, 8]: 1 (2.9%) no. subjects (%)
Nasal discomfort [3, 8]: 3 (8.6%) no. subjects (%)
Nausea [3, 8]: 13 (37.1%) no. subjects (%)
Nervous system disorders [3, 8]: 25 (71.4%) no. subjects (%)
Oropharyngeal pain [3, 8]: 2 (5.7%) no. subjects (%)
Panic attack [3, 8]: 0 no. subjects (%)
Paresthesia [3, 8]: 6 (17.1%) no. subjects (%)
Paresthesia oral [3, 8]: 2 (5.7%) no. subjects (%)
Pharyngeal hypoesthesia [3, 8]: 2 (5.7%) no. subjects (%)
Pollakiuria [3, 8]: 0 no. subjects (%)
Psychiatric disorders [3, 8]: 20 (57.1%) no. subjects (%)
Rash [3, 8]: 1 (2.9%) no. subjects (%)
Renal and urinary disorders [3, 8]: 1 (2.9%) no. subjects (%)
Respiratory, thoracic and mediastinal disorders [3, 8]: 9 (25.7%) no. subjects (%)
Rhinalgia [3, 8]: 0 no. subjects (%)
Rhinorrhoea [3, 8]: 0 no. subjects (%)
Sedation [3, 8]: 6 (17.1%) no. subjects (%)
Skin and subcutaneous tissue disorders [3, 8]: 5 (14.3%) no. subjects (%)
Somnolence [3, 8]: 4 (11.4%) no. subjects (%)
Suicidal ideation [3, 8]: 2 (5.7%) no. subjects (%)
Throat irritation [3, 8]: 3 (8.6%) no. subjects (%)
Tinnitus [3, 8]: 2 (5.7%) no. subjects (%)
Toothache [3, 8]: 0 no. subjects (%)
Upper respiratory tract infection [3, 8]: 0 no. subjects (%)
Vertigo [3, 8]: 4 (11.4%) no. subjects (%)
Vision blurred [3, 8]: 3 (8.6%) no. subjects (%)
Vomiting [3, 8]: 7 (20.0%) no. subjects (%)
Weight increased [3, 8]: 2 (5.7%) no. subjects (%)
Aggression [3, 9]: 1 (2.9%) no. subjects (%)
Agitation [3, 9]: 1 (2.9%) no. subjects (%)
Cardiac disorders [3, 9]: 1 (2.9%) no. subjects (%)
Dissociative disorder [3, 9]: 0 no. subjects (%)
Dizziness [3, 9]: 1 (2.9%) no. subjects (%)
Dysgeusia [3, 9]: 1 (2.9%) no. subjects (%)
Dyspnea [3, 9]: 1 (2.9%) no. subjects (%)
Gastrointestinal disorders [3, 9]: 1 (2.9%) no. subjects (%)
Nausea [3, 9]: 1 (2.9%) no. subjects (%)
Nervous system disorders [3, 9]: 2 (5.7%) no. subjects (%)
Panic attack [3, 9]: 0 no. subjects (%)
Psychiatric disorders [3, 9]: 2 (5.7%) no. subjects (%)
Respiratory, thoracic and mediastinal disorders [3, 9]: 1 (2.9%) no. subjects (%)
Total no. subjects with TEAE leading to study discontinuation [3, 9]: 5 (14.3%) no. subjects (%)
Ventricular extrasystoles [3, 9]: 1 (2.9%) no. subjects (%)
Abdominal pain [3, 10]: 1 (3.7%) no. subjects (%)
Abdominal tenderness [3, 10]: 1 (3.7%) no. subjects (%)
Aphthous ulcer [3, 10]: 0 no. subjects (%)
